What all share (experiment): DTP human tumour cell line panel, 48 h
Assay [1] has as its system OVCAR-4 ovarian.
Assay [2] deals with HS 578T breast.
The test system of assay [3] is SNB-75 CNS.
In assay [4] the test system is NCI-H522 lung.
Assay [5] concerns M14 melanoma.
Assay [6] relates to A549 NSCLC.
Assay [7] has as its system U251 CNS.
Assay [8] concerns K-562 leukemia.
For assay [9], the system named is HCT-116 colon.
The subject of assay [10] is NCI-H226 lung.

The text below walks through data of PubChem BioAssay (NCI).

For orientation: TGI means the concentration giving total growth inhibition. Low readings indicate more potent growth arrest, high ones less potent growth arrest. As usually defined, the GI50 is the concentration that inhibits growth by half.

The structures appear in SMILES notation.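 All cell lines were grown in 96-well plates and treated with compound for 48 hours. GI50: concentration for 50% inhibition of growth. TGI: total growth inhibition.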

As to `CNC(=O)OC(COC)CN1CCN(c2ccccc2C)CC1` (stereo not given), the TGI in assay [1], in assay [2], in [3], in assay [4], in [5] and in assay [6] was over 10 µM throughout. Moreover, the TGI in [7], in assay [8], in assay [9] and in assay [10] was over 10 µM in each case.

As to `Nc1c2c(nc3ccccc13)-c1ccccc1NCCC2`, the TGI in assay [1] is over 100 µM; in [2], over 100 µM; in assay [3], over 100 µM; in [4], 82.6 µM; in assay [5], 33.3 µM; in assay [6], over 100 µM. The TGI was over 100 µM in assay [7], over 100 µM in [8], 94.3 µM in assay [9] and over 100 µM in assay [10].

For the compound `CC[P+]1(c2ccccc2)[C@@H](C)CC[C@@H]1C`, the TGI in assay [1], in assay [2], in assay [3], in assay [4], in assay [5] and in [6] was over 100 µM in each case. Besides, the total growth inhibition concentration (TGI) in [7], in [8], in assay [9] and in assay [10] was over 100 µM each time.

Consider `COc1cc2ccc1OCc1cccc(n1)COc1ccc(cc1OC)C=NCCNCCNCCN=C2`, for which the TGI in assay [1], in assay [2], in [3], in [4], in assay [5] and in assay [6] was over 100 µM throughout. Also, the TGI in assay [7], in [8], in assay [9] and in assay [10] was over 100 µM throughout.

With `NC(=Nc1cccc(Cl)c1)c1ccccc1N`, the TGI in [1], in [2], in assay [3], in assay [4], in [5] and in assay [6] was over 100 µM each time. The TGI in [7], in [8], in assay [9] and in [10] was over 100 µM in each case.

As for `O=C(NCCNc1nccc(-c2c(-c3cccc(O)c3)nc3sccn23)n1)c1ccccc1`, the GI50 was 13.9 µM in assay [1]; 4.86 µM in [2]; 3.27 µM in [3]; 5.76 µM in [4]; 0.434 µM in assay [5]; 9.21 µM in assay [6]. Further, the GI50 in assay [7] is 17.9 µM; in assay [8], 9.11 µM; in [9] it was 4.82 µM; in assay [10] it was 7.95 µM. The TGI in assay [1] was 84.6 µM; in [2], 38.3 µM; in assay [3], 28.1 µM; in assay [4], 25.5 µM; in [5] it was 12.3 µM; in assay [6], 46.5 µM. For the same compound, the TGI in assay [7] was over 100 µM; in assay [8], over 100 µM; in [9], 17.5 µM; in [10], 45.3 µM.

For `CCOC(=O)c1cc(C2CCN(c3ccccc3)C2=O)c(C(=O)/C=C(/C)N)[nH]1` (stereo not given), the concentration for total growth inhibition (TGI) is over 100 µM in assay [1]; 46.3 µM in [2]; 28.2 µM in assay [3]; 53.1 µM in assay [4]; over 100 µM in assay [5]; over 100 µM in [6]. Also, the TGI was 36.4 µM in assay [7], over 100 µM in assay [8], 27.9 µM in assay [9] and 80.4 µM in assay [10].

Turning to `Cc1cc(O)c(/C=N/C(=S)Nc2ccccc2)c(=O)o1`, the TGI in assay [1], in [2], in assay [3], in assay [4], in assay [5] and in assay [6] was over 100 µM each time. In addition, the TGI in [7], in assay [8], in assay [9] and in assay [10] was over 100 µM throughout.

As to `CCN(CC)CCCNc1[nH]ncc2c(C)c3nc4ccc(OC)cc4c3cc12`, the TGI in assay [1] was found to be 2.75 µM; in assay [2], 4.25 µM; in assay [3], 2.1 µM; in assay [4], 0.639 µM; in assay [5], 3.26 µM; in assay [6], 2.73 µM. In addition, the TGI in assay [7] was 1.77 µM; in [8], 1.64 µM; in assay [9] it was 1.41 µM; in [10], 1.7 µM.

For the compound `C=CCN(c1cc(OC)c2[nH]c(C(=O)OCC)c(C)c2c1[N+](=O)[O-])S(C)(=O)=O`, the TGI in assay [1] was over 100 µM; in assay [2] it was 58.7 µM; in [3], 60 µM; in assay [4], 43.9 µM; in assay [5], over 100 µM; in assay [6] it was over 100 µM. In addition, the TGI in assay [7] was determined as 31.6 µM; in [8], 31.4 µM; in [9] it was 58.3 µM; in assay [10], 25.3 µM.
